Values quoted from earlier work as cited in US20080108542A1, “Perfume Compositions” (priority 2005, published 2008).

Settings: 25° C.; data from literature or estimation software

| Structure (SMILES) | SVP (saturated vapour pressure) class |
| --- | --- |
| CC(C)CC1CCCC(C)(O)C1 (centres unmarked) [1-METHYL-3-(2-METHYLPROPYL)CYCLOHEXANOL] | & (SVPs in the range of 25 to 125 micron Hg) |
| CC1=CC(C)C(C=O)CC1 (centres unmarked) [2,4-DIMETHYL-3-CYCLOHEXENE-1-CARBOXALDEHYDE] | && (SVPs greater than 125 micron Hg) |
| CCCCC1OC(C)CC(C)(C)O1 (centres unmarked) [2-BUTYL-4,4,6-TRIMETHYL-1,3-DIOXAN] | && (SVPs greater than 125 micron Hg) |
| CCCCCCC1CCCC1=O (centres unmarked) [2-HEXYL-CYCLOPENTANONE] | & (SVPs in the range of 25 to 125 micron Hg) |
| C=CCOC(=O)COCC(C)CC (centres unmarked) [2-METHYLBUTYLOXYACETIC ACID, 2-PROPENYL ESTER] | & (SVPs in the range of 25 to 125 micron Hg) |
| CCCCCCCCCC(C)C=O (centres unmarked) [2-METHYLUNDECANAL] | & (SVPs in the range of 25 to 125 micron Hg) |
| CCCCCCCC1CCCO1 (centres unmarked) [2-N-HEPTYLTETRAHYDROFURAN] | && (SVPs greater than 125 micron Hg) |
| COC1CC2CC1C1CC=CC21 (centres unmarked) [8-METHOXY-TRICYCLO[5.2.1.0{2,6}]DEC-3-ENE] | && (SVPs greater than 125 micron Hg) |
| CC/C=C/CC/C=C/C#N [(2E,6E)-NONA-2,6-DIENENITRILE] | & (SVPs in the range of 25 to 125 micron Hg) |
| CC1=CCC(C(C)(C)O)CC1 (stereo not drawn) [ALPHA-TERPINEOL] | & (SVPs in the range of 25 to 125 micron Hg) |
| CCOC(=O)C1=C(C)C=CCC1(C)C [ETHYL 2,6,6-TRIMETHYLCYCLOHEXA-1,3-DIENE-1-CARBOXYLATE] | & (SVPs in the range of 25 to 125 micron Hg) |
| CC(=O)OC1CCC(C(C)(C)C)CC1 (centres unmarked) [PARA TERT.BUTYL CYCLOHEXYL ACETATE] | & (SVPs in the range of 25 to 125 micron Hg) |
| CCC(C)(O)CCCC(C)C (centres unmarked) [TETRAHYDROLINALOL] | && (SVPs greater than 125 micron Hg) |
| CCCCC/C=C/CCC=O [TRANS-4-DECENAL] | && (SVPs greater than 125 micron Hg) |
